# Data: patent US9376499B2, “PAR-1 activation by metalloproteinase-1 (MMP-1)” (Tufts Medical Center, Inc., priority 2009, dated 2016)
# Non-standard residues stand in square brackets, D forms with d. Residues, ends and D or L forms follow the SMILES beside them. No end group written: not given here. *: point of attachment. 4Abz = Nc1ccc(C(=O)O)cc1; NHOH = ON*
# Legend:
# MMP-9 = MMP-9 (Homo sapiens, UniProt P14780); conditions: cited from earlier work
# MMP-1 [1] = target: T1, MMP-1 (Homo sapiens, UniProt P03956); experiment: Collagenase (active MMP-1) activity of collagen-stimulated human platelets, DQ collagen I fluorogenic substrate; type: biochemical; set-up: endogenous in cells; host or cells: human platelets from healthy donors, stimulated with collagen, ADP or U-46619; conditions: 3 μM FN-439 or 20 μg/ml blocking Ab; platelets treated with 20 μg/ml collagen
# T1 sequence (P03956 100-469): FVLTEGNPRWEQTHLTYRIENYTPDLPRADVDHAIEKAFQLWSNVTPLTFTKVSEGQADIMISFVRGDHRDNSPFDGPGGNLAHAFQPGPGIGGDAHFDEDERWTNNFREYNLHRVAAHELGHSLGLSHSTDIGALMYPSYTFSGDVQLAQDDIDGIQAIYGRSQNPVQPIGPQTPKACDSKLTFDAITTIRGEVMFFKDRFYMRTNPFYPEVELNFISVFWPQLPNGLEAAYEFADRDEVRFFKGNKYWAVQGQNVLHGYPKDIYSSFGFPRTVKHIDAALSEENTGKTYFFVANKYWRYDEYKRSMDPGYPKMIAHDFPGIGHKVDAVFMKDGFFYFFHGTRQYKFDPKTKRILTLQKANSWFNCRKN
# Experimental: The enzymatic activity of active MMP-1 in supernatants and platelet lysates was then determined. Human or guinea pig platelets from PRP were concentrated four-fold by centrifugation at 700 g for 25 min at room temperature, and then resuspended in 0.25 volume of PIPES containing 1 mM EDTA (final platelet count was 10^9/mL). Platelets were treated with PBS (buffer), 20 μM ADP, 20 μM U-46619, or 20 μg/ml collagen in the presence of 2.5 mM CaCl2. The platelets were incubated for 15 min at 37° C. with occasional gentle mixing. Platelets were collected by centrifugation at 10,000 g for 5 min at 4° C. and resuspended in lysis buffer (50 mM Tris HCl, 100 mM NaCl, 1 mM NaF, 5 mM EDTA, 0.1% (v/v) Triton X-100, 100 μM PMSF, pH 7.4) and then sheared with a 27 gauge needle.
# The enzymatic activity of active MMP-1 in supernatants and platelet lysates was measured using DQ collagen I (Molecular Probes) as fluorogenic substrate and reporter of collagenase activity substrate (Boire et al., 2005) in the presence or absence of 3 μM FN-439, or 20 μg/ml each of control IgG, MMP-1 blocking Ab, MMP-8 blocking Ab or MMP-13 blocking Ab (preincubated for 2 h at 37° C.), as indicated with APMA-activated MMP-1 serving as control (FIG. 1A, striped bars). […]
# MMP-1 [2] = target: T2, MMP-1 (Cavia porcellus, UniProt H0V812); experiment: Collagenase activity released from collagen-treated guinea pig platelets; type: biochemical; conditions: 20 μg/ml collagen; 3 μM FN-439 or 20 μg/ml Ab
# T2 construct: endogenous in cells; host or cells: platelets of Hartley guinea pigs
# T2 sequence (H0V812 1-472): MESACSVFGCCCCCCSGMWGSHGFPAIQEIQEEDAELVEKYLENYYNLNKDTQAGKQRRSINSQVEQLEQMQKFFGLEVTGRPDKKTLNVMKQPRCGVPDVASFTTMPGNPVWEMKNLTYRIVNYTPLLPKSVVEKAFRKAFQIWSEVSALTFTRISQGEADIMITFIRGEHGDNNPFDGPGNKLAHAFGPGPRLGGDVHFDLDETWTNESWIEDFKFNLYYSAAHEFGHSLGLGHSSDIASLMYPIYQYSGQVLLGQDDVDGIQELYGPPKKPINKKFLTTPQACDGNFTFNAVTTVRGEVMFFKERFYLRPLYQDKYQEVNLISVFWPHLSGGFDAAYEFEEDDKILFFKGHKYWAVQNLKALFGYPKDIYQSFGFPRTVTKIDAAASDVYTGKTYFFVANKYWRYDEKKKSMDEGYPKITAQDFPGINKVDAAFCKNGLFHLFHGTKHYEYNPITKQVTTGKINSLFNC
# Experimental: Animal experiments were performed in accordance with the National Institutes of Health guidelines and approved by the Tufts Medical Center Institutional Animal Care and Use Committee. 2-4 week old Hartley guinea pigs (170-260 g) were anesthetized by an i.p. injection of xylazine (10 mg/kg) plus ketamine (50 mg/kg) and then catheterized via the left jugular vein and injected (200 μL) with either vehicle (20% DMSO/80% water), P1pal-7 or FN-439. For determination of collagen-dependent systemic platelet activation, 10 min after administration of inhibitors, 200 μg collagen in 200 μL of PBS was delivered via the jugular vein. Ten min after collagen injection, blood was collected into sodium citrate (1% v/v final) from the contralateral jugular vein and platelet counts were measured with a Hemavet850. The enzymatic activity of active MMP-1 in supernatants and platelet lysates was determined using DQ collagen I as fluorogenic substrate in the presence or absence of 3 μM FN-439, or 20 μg/ml of control IgG or a MMP-1 blocking Ab (preincubated for 2 h at 37° C.), as indicated.
# Dashed grey line: secondary antibody alone; Solid lines: FACS profiles of platelets treated with the indicated concentrations of collagen for 15 min at 37° C. and then stained with primary MMP-1 (AB806) plus secondary antibodies.
# [3] = Atherosclerotic lesion area in ApoE-deficient mice (en face Oil-Red-O); type: in vivo, mouse; conditions: high-fat diet 15 weeks, s.c. 6 days a week, FN-439 5 mg/kg, P1pal-7 10 mg/kg; for mean lesion area, abdominal section of the aorta: vehicle 8.9%; for mean lesion area, aortic section, % of the total area: vehicle 12.9%
# Experimental: Twenty five (25) 86.129P2-Apoe^fm1Unc/J mice, 7 weeks old, were separated into 3 groups and fed ad libitum with high-fat/high-cholesterol diet (21% fat, 0.21% cholesterol) (0120798, Research Diets) for 15 weeks. Group I included 8 mice (n=8) was used as a control group and received Vehicle (20% DMSO in 1×PBS). Group II included 8 mice (n=8) that were treated with MMP Inhibitor I FN-439 (Calbiochem) at a dose of 5 mg/kg. Lastly, group III included 9 mice (n=9) treated with 10 mg/kg of the P1pal-7 pepducin lipopeptide. […] P1pal-7 is a cell-penetrating pepducin lipopeptide based on the third intracellular loop (i3) of human PAR1 and acts as an antagonist of PAR1 signaling. All mice were injected subcutaneously with 100 μl of the corresponding treatment for 6 days a week. At the end of the treatment, and after a 4 hours fasting, the mice were anesthetized with ketamine/xylazine and pressure-fixed with 10% formalin. The heart and the aorta of each mouse were isolated, removed and fixed for 2 days in 10% formalin and adventitial fat was removed. The abdominal area of the aorta was cut and used for whole mount immunohistochemistry. The “aortic arch/thoracic” area and the rest of the “abdominal/iliac” area of the aorta were cut open and pinned on dissecting black wax and used for “en face” staining with Oil-Red-O.
# To study the extent of artherosderotic plaque formation, pinned aortas were first fixed in 10% formalin and kept in 1×PBS. The aorta of the mice were then subjected to “en face” staining with Oil-Red-O, which stains lipids red. Briefly, the PBS was drained from the samples and the stain solution was added for 45 min. The stain was drained and the samples were washed first with 70% Ethanol and then with water, in order to remove the background. Digital pictures of the stained aortas were taken and the MetaXpress software (Molecular Devices) was used to define and quantify the total aortic area as well as the lesion areas. The ratio of lesion area to the total aortic area was calculated for the “aortic arch/thoracic” and the “abdominal/iliac” area. The aorta of each mouse was isolated and separated into three sections. The abdominal section (before and after the renal arteries) was separated and used for whole mount immunohistochemistry. The remaining sections were the one from the aortic arch to the mesenteric artery (aortic) and the other from after the renal arteries to the iliac arteries (abdominal). These sections of the aorta were used for the “en face” staining and the estimation of the atherosclerotic lesion area.
# MMP-9, sequence (P14780 94-707, species assumed): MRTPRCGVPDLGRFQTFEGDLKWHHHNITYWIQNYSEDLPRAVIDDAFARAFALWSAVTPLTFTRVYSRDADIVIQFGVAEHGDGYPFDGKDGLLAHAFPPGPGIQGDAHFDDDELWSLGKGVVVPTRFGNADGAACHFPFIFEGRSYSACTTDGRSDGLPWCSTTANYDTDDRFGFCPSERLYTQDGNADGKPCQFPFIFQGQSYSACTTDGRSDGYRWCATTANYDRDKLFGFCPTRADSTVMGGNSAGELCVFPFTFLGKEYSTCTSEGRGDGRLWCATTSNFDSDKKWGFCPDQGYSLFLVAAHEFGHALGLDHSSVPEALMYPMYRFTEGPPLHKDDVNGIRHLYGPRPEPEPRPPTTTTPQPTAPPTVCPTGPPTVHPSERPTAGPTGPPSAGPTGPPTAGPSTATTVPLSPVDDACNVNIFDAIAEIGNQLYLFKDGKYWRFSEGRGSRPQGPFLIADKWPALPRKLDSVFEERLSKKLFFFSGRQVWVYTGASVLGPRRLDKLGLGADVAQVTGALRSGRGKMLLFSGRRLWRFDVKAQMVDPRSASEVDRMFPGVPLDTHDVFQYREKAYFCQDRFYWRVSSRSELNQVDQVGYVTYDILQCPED
inhibition of platelet collagenase activity released by collagen (cleavage of fluorogenic collagen substrate) (MMP-1 [1]),block of collagenase activity released by collagen from guinea pig platelets (MMP-1 [2]),Compound,IC50 (MMP-9) [µM],"mean lesion area, abdominal section of the aorta [3] [%]","mean lesion area, aortic section, % of the total area [3] [%]"
completely blocked,completely blocked,CC(C)C[C@@H](NC(=O)[C@@H]1CCCN1C(=O)CNC(=O)c1ccc(N)cc1)C(=O)N[C@H](C)C(=O)NO [FN-439] (H-[4Abz]GP[dL][dA]-{NHOH}),30,4.1,10.7
,,"P1pal-7: PAR1 i3 loop pepducin lipopeptide, KKSRALF (SEQ ID NO. 2), palmitate (also: palmitate, site not given here)",,2.3,8.1
